Reference: patent publication US8349899B1 (Arrowhead Center, Inc., priority 2008, dated 2013)
pIC50: −log10 of the molar value. Like-named read-outs stand apart in the source and are kept apart here.

Legend:
SF-295 = experiment: NCI60 growth inhibition, Central Nervous System SF-295; type: cell-based; conditions: Homo sapiens
Text: (§1) MSTCO was screened against the NCI60 tumor panel. Cell lines shown above represent lines common to all three screens, and growth inhibition is expressed as the concentration of drug (μM) that achieved 50% growth inhibition.

SW-620 = experiment: NCI60 growth inhibition, Colon SW-620; type: cell-based; conditions: Homo sapiens
Text: as §1

MOLT-4 = experiment: NCI60 growth inhibition, Leukemia MOLT-4; type: cell-based; conditions: Homo sapiens
Text: as §1

UACC-257 = experiment: NCI60 growth inhibition, Melanoma UACC-257; type: cell-based; conditions: Homo sapiens
Text: as §1

CAKI-1 = experiment: NCI60 growth inhibition, Renal CAKI-1; type: cell-based; conditions: Homo sapiens
Text: as §1

OVCAR-3 = experiment: NCI60 growth inhibition, Ovarian OVCAR-3; type: cell-based; conditions: Homo sapiens
Text: as §1

RPMI-8226 = experiment: NCI60 growth inhibition, Leukemia RPMI-8226; type: cell-based; conditions: Homo sapiens
Text: as §1

EKVX = experiment: NCI60 growth inhibition, Non-Small Cell Lung EKVX; type: cell-based; conditions: Homo sapiens
Text: as §1

SK-MEL-2 = experiment: NCI60 growth inhibition, Melanoma SK-MEL-2; type: cell-based; conditions: Homo sapiens
Text: as §1

NCI-H522 = experiment: NCI60 growth inhibition, Non-Small Cell Lung NCI-H522; type: cell-based; conditions: Homo sapiens
Text: as §1

OVCAR-4 = experiment: NCI60 growth inhibition, Ovarian OVCAR-4; type: cell-based; conditions: Homo sapiens
Text: as §1

NCI-H226 = experiment: NCI60 growth inhibition, Non-Small Cell Lung NCI-H226; type: cell-based; conditions: Homo sapiens
Text: as §1

IGROV1 = experiment: NCI60 growth inhibition, Ovarian IGROV1; type: cell-based; conditions: Homo sapiens, IGROV-1
Text: as §1

MALME-3M = experiment: NCI60 growth inhibition, Melanoma MALME-3M; type: cell-based; conditions: Homo sapiens
Text: as §1

HT29 = experiment: NCI60 growth inhibition, Colon HT29; type: cell-based; conditions: Homo sapiens, HT-29
Text: as §1

OVCAR-8 = experiment: NCI60 growth inhibition, Ovarian OVCAR-8; type: cell-based; conditions: Homo sapiens
Text: as §1

SR = experiment: NCI60 growth inhibition, Leukemia SR; type: cell-based; conditions: Homo sapiens
Text: as §1

TK-10 = experiment: NCI60 growth inhibition, Renal TK-10; type: cell-based; conditions: Homo sapiens
Text: as §1

UACC-62 = experiment: NCI60 growth inhibition, Melanoma UACC-62; type: cell-based; conditions: Homo sapiens
Text: as §1

SF-268 = experiment: NCI60 growth inhibition, Central Nervous System SF-268; type: cell-based; conditions: Homo sapiens
Text: as §1

U251 = experiment: NCI60 growth inhibition, Central Nervous System U251; type: cell-based; conditions: Homo sapiens, U-251
Text: as §1

HCT-116 = experiment: NCI60 growth inhibition, Colon HCT-116; type: cell-based; conditions: Homo sapiens
Text: as §1

UO-31 = experiment: NCI60 growth inhibition, Renal UO-31; type: cell-based; conditions: Homo sapiens
Text: as §1

ACHN = experiment: NCI60 growth inhibition, Renal ACHN; type: cell-based; conditions: Homo sapiens
Text: as §1

CCRF-CEM = experiment: NCI60 growth inhibition, Leukemia CCRF-CEM; type: cell-based; conditions: Homo sapiens
Text: as §1

LOX IMVI = experiment: NCI60 growth inhibition, Melanoma LOX IMVI; type: cell-based; conditions: Homo sapiens
Text: as §1

M14 = experiment: NCI60 growth inhibition, Melanoma M14; type: cell-based
Text: as §1

HL-60(TB) = experiment: cells; type: cell-based; conditions: Homo sapiens; Leukemia HL-60(TB)
COLO 205 = experiment: NCI60 growth inhibition, Colon COLO 205; type: cell-based; conditions: Homo sapiens
Text: as §1

NCI-H322M = experiment: NCI60 growth inhibition, Non-Small Cell Lung NCI-H322M; type: cell-based; conditions: Homo sapiens
Text: as §1

SK-OV-3 = experiment: NCI60 growth inhibition, Ovarian SK-OV-3; type: cell-based; conditions: Homo sapiens
Text: as §1

SNB-19 = experiment: NCI60 growth inhibition, Central Nervous System SNB-19; type: cell-based; conditions: Homo sapiens
Text: as §1

SK-MEL-5 = experiment: NCI60 growth inhibition, Melanoma SK-MEL-5; type: cell-based; conditions: Homo sapiens
Text: as §1

OVCAR-5 = experiment: NCI60 growth inhibition, Ovarian OVCAR-5; type: cell-based; conditions: Homo sapiens
Text: as §1

NCI60 tumor panel = NCI60 tumor panel growth inhibition, whole panel; type: cell-based
HCC-2998 = experiment: NCI60 growth inhibition, Colon HCC-2998; type: cell-based; conditions: Homo sapiens
Text: as §1

HCT-15 = experiment: NCI60 growth inhibition, Colon HCT-15; type: cell-based; conditions: Homo sapiens
Text: as §1

KM12 = experiment: NCI60 growth inhibition, Colon KM12; type: cell-based; conditions: Homo sapiens
Text: as §1

SK-MEL-28 = experiment: NCI60 growth inhibition, Melanoma SK-MEL-28; type: cell-based; conditions: Homo sapiens
Text: as §1

SNB-75 = experiment: NCI60 growth inhibition, Central Nervous System SNB-75; type: cell-based; conditions: Homo sapiens
Text: as §1

786-0 = experiment: NCI60 growth inhibition, Renal 786-0; type: cell-based; conditions: Homo sapiens
Text: as §1

A549/ATCC = experiment: NCI60 growth inhibition, Non-Small Cell Lung A549/ATCC; type: cell-based; conditions: Homo sapiens
Text: as §1

[1] = tested on: HeLa cervical adenocarcinoma cells; experiment: bipolar spindle formation in HeLa cells; type: cell-based, human
Method: Biochemical- and cell-based assays were used to evaluate the inhibitory activities of the STLC analogs. Using a commercially available assay from Cytoskeleton, Inc, analogs were assayed for their ability to block the microtubule-activated ATPase activity of recombinant human EG5 motor domain. In parallel, HeLa cells were treated for four hours with a range of concentrations, and then fixed, stained for microtubules, and mitotic cells were scored for spindle bipolarity.

NCI-H23 = experiment: NCI60 growth inhibition, Non-Small Cell Lung NCI-H23; type: cell-based; conditions: Homo sapiens
Text: as §1

HOP-62 = experiment: NCI60 growth inhibition, Non-Small Cell Lung HOP-62; type: cell-based; conditions: Homo sapiens
Text: as §1

SF-539 = experiment: NCI60 growth inhibition, Central Nervous System SF-539; type: cell-based; conditions: Homo sapiens
Text: as §1

SN12C = experiment: NCI60 growth inhibition, Renal SN12C; type: cell-based; conditions: Homo sapiens
Text: as §1

K-562 = experiment: NCI60 growth inhibition, Leukemia K-562; type: cell-based; conditions: Homo sapiens, K562
Text: as §1

## COc1ccc(C(SC[C@H](N)CO)(c2ccccc2)c2ccccc2)cc1 [Compound 1.0, 2-amino-3-[(4-methoxy-phenyl)-diphenyl-methylsulfanyl]-propan-1-ol]
SF-295
  GI50: 280 nM
SW-620
  GI50: 70 nM
MOLT-4
  GI50: 280 nM
UACC-257
  GI50: 540 nM
CAKI-1
  GI50: 450 nM
OVCAR-3
  GI50: 200 nM
RPMI-8226
  GI50: 30 nM
EKVX
  GI50: 510 nM
SK-MEL-2
  GI50: 240 nM
NCI-H522
  GI50: 220 nM
OVCAR-4
  GI50: 1620 nM
NCI-H226
  GI50: 2750 nM
IGROV1
  GI50: 260 nM
MALME-3M
  GI50: 360 nM
HT29
  GI50: 340 nM
OVCAR-8
  GI50: 420 nM
SR
  GI50: 10 nM
TK-10
  GI50: 460 nM
UACC-62
  GI50: 250 nM
SF-268
  GI50: 110 nM
U251
  GI50: 190 nM
HCT-116
  GI50: 30 nM
UO-31
  GI50: 1100 nM
ACHN
  GI50: 490 nM
CCRF-CEM
  GI50: 100 nM
LOX IMVI
  GI50: 490 nM
M14; Homo sapiens, Melanoma M14
  GI50: 20 nM
M14; melanoma cell line M14, GI50
  increase in activity over STLC: 20 fold
  increase in activity over monastrol: 1200 fold
HL-60(TB)
  GI50: 190 nM
COLO 205
  GI50: 80 nM
NCI-H322M
  GI50: 110 nM
SK-OV-3
  GI50: 80 nM
SNB-19
  GI50: 250 nM
SK-MEL-5
  GI50: 60 nM
OVCAR-5
  GI50: 390 nM
NCI60 tumor panel; 60 cancer cell lines, single dose 10 μM
  anti-proliferative activity, initial single-dose screen: promising activity
NCI60 tumor panel; GI50, average over cell lines
  average increase in activity over Monastrol: 143 fold
  average increase in activity over STLC: 35 fold
NCI60 tumor panel; read-out: average GI50
  GI50: 360 nM
NCI60 tumor panel; read-out: highest GI50 of the range over the panel
  GI50: 3000 nM
NCI60 tumor panel; read-out: lowest GI50 of the range over the panel
  GI50: 20 nM
HCC-2998
  GI50: 50 nM
HCT-15
  GI50: 210 nM
KM12
  GI50: 220 nM
SK-MEL-28
  GI50: 620 nM
SNB-75
  GI50: 260 nM
786-0
  GI50: 440 nM
A549/ATCC
  GI50: 330 nM
[1]; HeLa bipolar spindle formation
  inhibitory activity in the cell-based assay: best performing analog
[1]; Homo sapiens, HeLa, 4 h, read-out: Bipolar spindle formation IC50
  pIC50: 6.74
NCI-H23
  GI50: 260 nM
HOP-62
  GI50: 510 nM
SF-539
  GI50: 260 nM
SN12C
  GI50: 320 nM
K-562
  GI50: 60 nM
